Data as given in ChEMBL document CHEMBL4651402, “Screening of ~5500 FDA-approved drugs and clinical candidates for anti-SARS-CoV-2 activity” (2021).

System: SARS-CoV-2
Test: microbe, parasite or virus in culture
Conditions: Severe acute respiratory syndrome coronavirus 2, Vero C1008, 48 h

| SMILES | IC50 [µM] | IC50 (read-out: pIC50 (converted)) [µM] |
| --- | --- | --- |
| COc1cccc(-c2cc(F)c(Nc3ncccc3C(=O)O)c(F)c2)c1 [ASLAN-003] | > 20 | > 20 |
| CC(=O)Oc1ccccc1C(=O)O [ASPIRIN] | > 20 | > 20 |
| O=C(NC1CCNCC1)c1n[nH]cc1NC(=O)c1c(Cl)cccc1Cl [AT-7519] | > 20 | > 20 |
| O=C(Nc1c[nH]nc1-c1nc2ccc(CN3CCOCC3)cc2[nH]1)NC1CC1 [AT-9283] | > 20 | > 20 |
| COC(=O)N[C@H](C(=O)N[C@@H](Cc1ccccc1)[C@@H](O)CN(Cc1ccc(-c2ccccn2)cc1)NC(=O)[C@@H](NC(=O)OC)C(C)(C)C)C(C)(C)C [ATAZANAVIR] | > 20 | > 20 |
| O=C1c2ccccc2C(=O)c2c1ccc(O)c2O [ATHRAQUINONES A] | > 20 | > 20 |
| Cc1cc(C)cc([C@@H]2CCCN2Cc2ccc(Oc3ccc(C(N)=O)cc3F)cc2)c1 [ATICAPRANT] | > 20 | > 20 |
| CCC1(c2c[nH]cn2)Cc2ccccc2C1 [ATIPAMEZOLE] | > 20 | > 20 |
| CCCC1(CCC)CCC2(CCN(CCCN(CC)CC)C2)CC1 [ATIPRIMOD] | > 20 | > 20 |
| CNCC[C@@H](Oc1ccccc1C)c1ccccc1 [ATOMOXETINE] | > 20 | > 20 |
| CCOc1cc2c(c(F)c1OCC)C(=N)N(CC(=O)c1cc(N3CCOCC3)c(OC)c(C(C)(C)C)c1)C2 [ATOPAXAR] | > 20 | > 20 |
| CC(C)c1c(C(=O)Nc2ccccc2)c(-c2ccccc2)c(-c2ccc(F)cc2)n1CC[C@@H](O)C[C@@H](O)CC(=O)O [ATORVASTATIN] | > 20 | > 20 |
| O=C1C(O)=C([C@H]2CC[C@H](c3ccc(Cl)cc3)CC2)C(=O)c2ccccc21 [ATOVAQUONE] | > 20 | > 20 |
| COC(=O)c1c(C)cc(OC(=O)c2c(C)cc(O)c(C=O)c2O)c(C)c1O [ATRANORIN] | > 20 | > 20 |
| C[C@H](C#Cc1ccc(Cc2ccc(F)cc2)s1)N(O)C(N)=O [ATRELEUTON] | > 20 | > 20 |
| CC(O)(C(N)=O)c1ccccc1 (stereo not given) [ATROLACTAMIDE] | > 20 | > 20 |
| CN1[C@@H]2CC[C@H]1C[C@@H](OC(=O)C(CO)c1ccccc1)C2 (stereo not given in full) [ATROPINE] | > 20 | > 20 |
| O=C(O)C1=CC(=C(c2ccc(O)c(C(=O)O)c2)c2ccc(O)c(C(=O)O)c2)C=CC1=O [AURINTRICARBOXYLIC ACID] | > 20 | > 20 |
| Oc1ccc([C@H]2COc3cc(O)ccc3C2)cc1 [AUS-131] | > 20 | > 20 |
| CC1=CC(=O)C2=C(C)C[C@H](O)[C@@H]3[C@H](OC(=O)[C@H]3C)[C@@H]12 [AUSTRICIN] | > 20 | > 20 |
| Cc1nc2cccc(N)c2c(=O)n1C1CCC(=O)NC1=O (stereo not given) [AVADOMIDE] | > 20 | > 20 |
| Cn1cc(-c2cc3c(N4CCN(c5ncc([C@@](C)(N)c6ccc(F)cc6)cn5)CC4)ncnn3c2)cn1 [AVAPRITINIB] | > 20 | > 20 |
| COc1ccc(C(=O)CC(=O)c2ccc(C(C)(C)C)cc2)cc1 [AVOBENZONE] | > 20 | > 20 |
| COc1ccccc1Oc1c(NS(=O)(=O)c2ccc(C)cn2)nc(-c2ccncc2)nc1OC [AVOSENTAN] | > 20 | > 20 |
| Nc1ncn([C@@H]2O[C@H](CO)[C@@H](O)[C@H]2O)c(=O)n1 [AZACITIDINE] | > 20 | > 20 |

| SMILES | IC50 [µM] | IC50 (read-out: pIC50 (converted)) [µM] |
| --- | --- | --- |
| Clc1ccc(C2(Cn3cncn3)OCCO2)c(Cl)c1 [AZACONAZOLE] | > 20 | > 20 |
| OC(c1ccccc1)(c1ccccc1)C1CCNCC1 [AZACYCLONOL] | > 20 | > 20 |
| CN1CCC(=C2c3ccccc3Oc3ncccc32)CC1 [AZANATOR] | > 20 | > 20 |
| Cn1c([N+](=O)[O-])cnc1/C=C/c1ccnc(N)n1 [AZANIDAZOLE] | > 20 | > 20 |
| O=C(CCCN1CCN(c2ccccn2)CC1)c1ccc(F)cc1 [AZAPERONE] | > 20 | > 20 |
| C=CCN1Cc2ccccc2-c2ccccc2C1 [AZAPETINE] | > 20 | > 20 |
| CC(=O)OC[C@H]1O[C@@H](n2ncc(=O)[nH]c2=O)[C@H](OC(C)=O)[C@@H]1OC(C)=O [AZARIBINE] | > 20 | > 20 |
| CN1C(=O)COc2c(C(=O)NC3CN4CCC3CC4)cc(Cl)cc21 (stereo not given) [AZASETRON] | > 20 | > 20 |
| CN1CCC(=C2c3ccccc3CCc3cccnc32)CC1 [AZATADINE] | > 20 | > 20 |
| Cn1cnc([N+](=O)[O-])c1Sc1ncnc2[nH]cnc12 [AZATHIOPRINE] | > 20 | > 20 |
| c1cnc2c(c1)C[C@@]1(CN3CCC1CC3)O2 [AZD0328] | > 20 | > 20 |
| CC(=O)Nc1cccc2c1c(Sc1ccc(Cl)cc1)c(C)n2CC(=O)O [AZD1981] | > 20 | > 20 |
| Cc1[nH]nc(C(F)(F)F)c1Cc1sc2c(c1C(=O)N1C[C@](C)(O)CO1)c(=O)n(C)c(=O)n2C(C)C [AZD3965] | > 20 | > 20 |
| O=C(NCC12CC3CC(CC(C3)C1)C2)c1cc(CCCNCCCO)ccc1Cl [AZD9056] | > 20 | > 20 |
| Cc1cc(Nc2nc(N[C@@H](C)c3ncc(F)cn3)ncc2Cl)[nH]n1 [AZD-1480] | > 20 | > 20 |
| COc1ccc(-c2ccc3c(N4CCOC[C@@H]4C)nc(N4CCOC[C@@H]4C)nc3n2)cc1CO [AZD-8055] | > 20 | > 20 |
| O=C(O)CCCCCCCC(=O)O [AZELAIC ACID] | > 20 | > 20 |
| CCN1CCc2nc(N)oc2CC1 [AZEPEXOLE] | > 20 | > 20 |
| CCOc1nc2cccc(C(=O)O)c2n1Cc1ccc(-c2ccccc2-c2noc(=O)[nH]2)cc1 [AZILSARTAN] | > 20 | > 20 |
| CN1CCN(CCCCN2C(=O)CN(/N=C/c3ccc(-c4ccc(Cl)cc4)o3)C2=O)CC1 [AZIMILIDE] | > 20 | > 20 |
| CN1C(=N)N(c2ccccc2)CC1=O [AZOLIMINE] | > 20 | > 20 |
| NS(=O)(=O)c1cc(-c2nnn[nH]2)c(NCc2cccs2)cc1Cl [AZOSEMIDE] | > 20 | > 20 |
| C[C@H]1[C@H](NC(=O)/C(=N\OC(C)(C)C(=O)O)c2csc(N)n2)C(=O)N1S(=O)(=O)O [AZTREONAM] | > 20 | > 20 |
| O=C1CN(/N=C/c2ncc(-c3ccc(Br)cc3)o2)C(=O)N1 [AZUMOLENE] | > 20 | > 20 |
| CCOC(=O)OC(C)OC(=O)[C@@H]1N2C(=O)[C@@H](NC(=O)[C@H](N)c3ccccc3)[C@H]2SC1(C)C (stereo not given in full) [BACAMPICILLIN] | > 20 | > 20 |
